pIC50, pKi: −log10 of the molar value. Counter-ions that a name gives are not always drawn. Like-named read-outs stand apart in the source and are kept apart here.
Assays:
GCN2 kinase = GCN2 kinase (Homo sapiens, UniProt Q9P2K8); experiment: GCN2 enzyme inhibition assay (Transcreener ADP2 fluorescence polarization); assay type: biochemical; conditions: 280 μM ATP
How it was run: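 Inhibition of 4 nM GCN2 was measured with compound up to 8 μM final, ATP 280 μM and (RS)7 peptide 200 μM over a 1 h, 25 °C reaction. ADP FP readout; IC50 and Ki(app) calculated from percent inhibition.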

[1] = target: intracellular GCN2 (phosphorylation of the GCN2 substrate eIF2α) (Homo sapiens, UniProt Q9P2K8); experiment: GCN2 cellular inhibition assay (AlphaScreen SureFire P-eIF2α Ser51, borrelidin-treated U2OS cells); assay type: cell-based
How it was run: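 U2OS cells adhered overnight, then treated with compounds (4-fold serial dilutions from 40 μM final) plus borrelidin 10 μM final for 1 h at 37 °C. Lysate eIF2α Ser51 phosphorylation measured by AlphaScreen SureFire. Percent inhibition calculated relative to borrelidin-only wells.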

[2] = Enzyme activity for compounds of Formula IV, Ki(app), 25° C.
[3] = compounds of Formula IV, biomarker assay, phosphorylated eIF2α Ser51 in borrelidin-treated U2OS cells
[4] = compounds of Formula II, 4 nM GCN2 kinase
[5] = compounds of Formula II, biomarker assay, phosphorylated eIF2α Ser51 in borrelidin-treated U2OS cells

Chain of GCN2 kinase (Q9P2K8 whole entry): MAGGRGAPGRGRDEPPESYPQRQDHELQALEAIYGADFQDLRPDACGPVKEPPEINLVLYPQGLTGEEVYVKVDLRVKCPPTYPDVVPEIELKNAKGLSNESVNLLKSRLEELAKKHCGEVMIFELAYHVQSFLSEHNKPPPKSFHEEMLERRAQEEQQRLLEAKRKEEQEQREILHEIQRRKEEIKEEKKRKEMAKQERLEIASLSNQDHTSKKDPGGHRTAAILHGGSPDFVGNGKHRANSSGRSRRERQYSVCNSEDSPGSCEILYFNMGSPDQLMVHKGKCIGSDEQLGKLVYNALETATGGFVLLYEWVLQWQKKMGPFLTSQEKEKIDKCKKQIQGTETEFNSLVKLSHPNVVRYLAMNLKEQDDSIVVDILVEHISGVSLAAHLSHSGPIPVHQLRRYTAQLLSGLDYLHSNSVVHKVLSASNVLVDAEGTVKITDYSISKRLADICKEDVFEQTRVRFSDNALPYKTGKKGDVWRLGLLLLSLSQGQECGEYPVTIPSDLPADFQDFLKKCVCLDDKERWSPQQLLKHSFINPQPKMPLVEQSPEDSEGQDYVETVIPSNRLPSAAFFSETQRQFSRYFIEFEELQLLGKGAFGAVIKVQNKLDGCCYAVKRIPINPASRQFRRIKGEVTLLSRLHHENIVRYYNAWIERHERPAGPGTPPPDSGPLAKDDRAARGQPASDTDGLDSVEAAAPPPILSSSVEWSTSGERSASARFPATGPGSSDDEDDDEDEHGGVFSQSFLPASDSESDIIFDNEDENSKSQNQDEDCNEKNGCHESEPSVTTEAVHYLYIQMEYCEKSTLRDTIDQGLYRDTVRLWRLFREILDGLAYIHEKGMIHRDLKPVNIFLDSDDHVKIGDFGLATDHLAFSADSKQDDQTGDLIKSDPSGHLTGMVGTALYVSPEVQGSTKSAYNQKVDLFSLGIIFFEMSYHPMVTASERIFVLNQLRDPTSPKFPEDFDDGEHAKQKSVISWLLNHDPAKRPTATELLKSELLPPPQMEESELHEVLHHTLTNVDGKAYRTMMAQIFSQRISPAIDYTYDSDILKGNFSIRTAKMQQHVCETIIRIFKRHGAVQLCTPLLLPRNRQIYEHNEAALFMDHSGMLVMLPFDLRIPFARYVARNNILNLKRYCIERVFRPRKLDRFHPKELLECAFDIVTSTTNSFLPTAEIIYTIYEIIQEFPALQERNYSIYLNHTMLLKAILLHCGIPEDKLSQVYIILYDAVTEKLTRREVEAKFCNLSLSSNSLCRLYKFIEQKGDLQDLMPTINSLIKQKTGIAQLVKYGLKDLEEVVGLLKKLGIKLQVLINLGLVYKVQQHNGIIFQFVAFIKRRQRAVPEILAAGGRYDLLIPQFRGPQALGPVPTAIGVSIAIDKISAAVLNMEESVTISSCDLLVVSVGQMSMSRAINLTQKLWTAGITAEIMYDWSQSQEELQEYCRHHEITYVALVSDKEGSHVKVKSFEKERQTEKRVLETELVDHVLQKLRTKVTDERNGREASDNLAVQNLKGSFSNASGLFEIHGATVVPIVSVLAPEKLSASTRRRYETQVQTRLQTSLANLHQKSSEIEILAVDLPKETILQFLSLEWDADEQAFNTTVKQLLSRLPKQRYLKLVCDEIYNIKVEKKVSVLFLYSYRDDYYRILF
Chain of intracellular GCN2 (phosphorylation of the GCN2 substrate eIF2α) (Q9P2K8 whole entry): as above

Structure (SMILES)	pKi (GCN2 kinase; [2])	pIC50 [1, 3]	pKi (GCN2 kinase; [4])	pIC50 [1, 5]	other results
CC1C(c2c[nH]cn2)CCCN1c1ccnc(-c2cnc3cnc(C(F)(F)F)cn23)n1 (stereo not shown) [IV-389, 3-(4-(3-(1H-Imidazol-4-yl)-2-methylpiperidin-1-yl)pyrimidin-2-yl)-6-(trifluoromethyl)imidazo[1,2-a]pyrazine]	> 8.00	5.30 to 6.30	–	–	–
FC(F)c1ccc2ncc(-c3cc(C4CCCN(C5COC5)C4)ncn3)n2n1 (stereo not shown) [II-180, 6-(Difluoromethyl)-3-(6-(1-(oxetan-3-yl)piperidin-3-yl)pyrimidin-4-yl)imidazo[1,2-b]pyridazine]	–	–	6.00 to 8.00	< 5.30	–
CC1CCCN(c2ccnc(-c3cnc4cnc(C(F)F)cn34)n2)C1C (stereo not shown) [IV-134, 6-(Difluoromethyl)-3-(4-(2,3-dimethylpiperidin-1-yl)pyrimidin-2-yl)imidazo[1,2-a]pyrazine]	6.00 to 7.00	< 5.30	–	–	–
FC(F)(F)c1cn2c(-c3nccc(N4CCCC(c5cc[nH]n5)C4)n3)cnc2cn1 (stereo not shown) [IV-589, 3-(4-(3-(1H-Pyrazol-3-yl)piperidin-1-yl)pyrimidin-2-yl)-6-(trifluoromethyl)imidazo[1,2-a]pyrazine]	7.00 to 8.00	5.30 to 6.30	–	–	–
CS(=O)(=O)NCC1CCCN(c2cc(-c3cnc4ccc(C(F)F)nn34)cc(F)n2)C1 (stereo not shown) [II-122, N-((1-(4-(6-(Difluoromethyl)imidazo[1,2-b]pyridazin-3-yl)-6-fluoropyridin-2-yl)piperidin-3-yl)methyl)methanesulfonamide]	–	–	> 8.00	5.30 to 6.30	–
COCC(=O)N1CCN(c2cc(-c3cnc4ccc(C(F)F)nn34)ccn2)CC1 [II-170, 1-(4-(4-(6-(Difluoromethyl)imidazo[12-b]pyridazin-3-yl)pyridin-2-yl)piperazin-1-yl)-2-methoxyethanone]	–	–	6.00 to 8.00	5.30 to 6.30	–
C[C@@H]1CN(c2ccnc(-c3cnc4cnc(C(F)(F)F)cn34)n2)C[C@H](c2cn[nH]c2)O1 (racemic) [IV-12, Cis-2-Methyl-6-(1H-pyrazol-4-yl)-4-(2-(6-(trifluoromethyl)imidazo[1,2-a]pyrazin-3-yl)pyrimidin-4-yl)morpholine]	> 8.00	> 6.30	–	–	–
CC1C2COC(=O)N2CCN1c1cc(-c2cnc3ccc(C(F)F)nn23)ncn1 (stereo not shown) [II-547, 7-(6-(6-(Difluoromethyl)imidazo[1,2-b]pyridazin-3-yl)pyrimidin-4-yl)-8-methylhexahydro-3H-oxazolo[3,4-a]pyrazin-3-one]	–	–	6.00 to 8.00	5.30 to 6.30	–
CC1C(c2cn[nH]c2)NCCN1c1cc(-c2cnc3ccc(C(F)(F)F)nn23)ncn1 (stereo not shown) [II-706, 3-(6-(2-Methyl-3-(1H-pyrazol-4-yl)piperazin-1-yl)pyrimidin-4-yl)-6-(trifluoromethyl)imidazo[1,2-b]pyridazine]	–	–	6.00 to 8.00	5.30 to 6.30	–
FC(F)c1cn2c(-c3nccc(N4CCC(c5cc[nH]n5)C4)n3)cnc2cn1 (stereo not shown) [IV-64, 3-(4-(3-(1H-Pyrazol-3-yl)pyrrolidin-1-yl)pyrimidin-2-yl)-6-(difluoromethyl)imidazo[1,2-a]pyrazine]	6.00 to 7.00	< 5.30	–	–	–
O=C1OCC2CN(c3ccnc(-c4cnc5cnc(C(F)F)cn45)n3)CCN12 (stereo not shown) [IV-100, 7-(2-(6-(Difluoromethyl)imidazo[1,2-a]pyrazin-3-yl)pyrimidin-4-yl)hexahydro-3H-oxazolo[3,4-a]pyrazin-3-one]	6.00 to 7.00	< 5.30	–	–	–
CS(=O)(=O)NCC1CCCN(c2cc(-c3cnc4ccc(C(F)F)nn34)cc(N3CC4(COC4)C3)n2)C1 (stereo not shown) [II-83, N-((1-(4-(6-(Difluoromethyl)imidazo[1,2-b]pyridazin-3-yl)-6-(2-oxa-6-azaspiro[3.3]heptan-6-yl)pyridin-2-yl)piperidin-3-yl)methyl)methanesulfonamide]	–	–	> 8.00	5.30 to 6.30	–
CC1CN(c2ccnc(-c3cnc4sc(C(F)(F)F)cn34)n2)C(C)C(c2cn[nH]c2)N1 (single isomer, unassigned) [Compound V-11, 5-[4-[2,5-Dimethyl-3-(1H-pyrazol-4-yl)piperazin-1-yl]pyrimidin-2-yl]-2-(trifluoromethyl)imidazo[2,1-b]thiazole]	–	–	–	–	pKi (GCN2 kinase; compounds of Formula V, 4 nM GCN2 kinase): > 8.00; pIC50 ([1]; compounds of Formula V, U2OS cells, 10 μM borrelidin, 1 h, read-out: GCN2 Biomarker (IC50)): > 6.30
CC1CN(c2nccc(-c3cnc4cnc(C(F)(F)F)cn34)n2)CC(c2cn[nH]c2)O1 (single isomer, unassigned) [IV-200, 2-Methyl-6-(1H-pyrazol-4-yl)-4-(4-(6-(trifluoromethyl)imidazo[1,2-a]pyrazin-3-yl)pyrimidin-2-yl)morpholine]	> 8.00	5.30 to 6.30	–	–	–
CC(O)c1ccc2ncc(-c3cc(N4C[C@@H](CNS(C)(=O)=O)C(F)(F)[C@@H](C)C4)ncn3)n2n1 (stereo partly drawn) [II-337, N-(((3S,5S)-4,4-Difluoro-1-(6-(6-(1-hydroxyethyl)imidazo[1,2-b]pyridazin-3-yl)pyrimidin-4-yl)-5-methylpiperidin-3-yl)methyl)methanesulfonamide]	–	–	6.00 to 8.00	< 5.30	–
CC1CN(c2cc(-c3cnc4ccc(C(F)F)nn34)ccn2)CC(CNS(C)(=O)=O)C1(F)F (stereo not shown) [II-78, N-((1-(4-(6-(Difluoromethyl)imidazo[1,2-b]pyridazin-3-yl)pyridin-2-yl)-4,4-difluoro-5-methylpiperidin-3-yl)methyl)methanesulfonamide]	–	–	> 8.00	> 6.30	–
FC(F)c1cn2c(-c3nccc(N4CCC5(CCNCC5)C4)n3)cnc2cn1 [IV-140, 2-(2-(6-(Difluoromethyl)imidazo[1,2-a]pyrazin-3-yl)pyrimidin-4-yl)-2,8-diazaspiro[4.5]decane]	6.00 to 7.00	< 5.30	–	–	–
Cc1cn2c(-c3nccc(N4CCOC(c5cn[nH]c5)C4)n3)cnc2cn1 (stereo not shown) [IV-20, 4-(2-(6-Methylimidazo[1,2-a]pyrazin-3-yl)pyrimidin-4-yl)-2-(1H-pyrazol-4-yl)morpholine]	7.00 to 8.00	5.30 to 6.30	–	–	–
FC(F)c1ccc2ncc(-c3cc(N4CCc5ccccc54)ncn3)n2n1 [II-20, 6-(Difluoromethyl)-3-(6-(indolin-1-yl)pyrimidin-4-yl)imidazo[1,2-b]pyridazine]	–	–	6.00 to 8.00	< 5.30	–

Continued, in another order:

pKi (GCN2 kinase; [2])	pIC50 [1, 3]	pKi (GCN2 kinase; [4])	pIC50 [1, 5]	Structure (SMILES)	other results
–	–	6.00 to 8.00	< 5.30	CS(C)(=O)=NC1CCCN(c2cc(-c3cnc4ccc(C(F)F)nn34)ncn2)C1C(F)F (stereo not shown) [II-701, [2-(Difluoromethyl)-1-[6-[6-(difluoromethyl)imidazo[1,2-b]pyridazin-3-yl]pyrimidin-4-yl]-3-piperidyl]imino-dimethyl-λ^6-sulfanone]	–
–	–	6.00 to 8.00	5.30 to 6.30	CC1C(NS(C)(=O)=O)CCCN1c1cc(-c2cnc3ccc(C(F)F)nn23)ncn1 (single isomer, unassigned) [II-374, N-[1-[6-[6-(Difluoromethyl)imidazo[1,2-b]pyridazin-3-yl]pyrimidin-4-yl]-2-methyl-3-piperidyl]methanesulfonamide]	–
–	–	> 8.00	> 6.30	CC1C(CNS(C)(=O)=O)NCCN1c1cc(-c2cnc3ccc(C(F)F)nn23)ncn1 (stereo not shown) [II-313, N-[[4-[6-[6-(Difluoromethyl)imidazo[1,2-b]pyridazin-3-yl]pyrimidin-4-yl]-3-methyl-piperazin-2-yl]methyl]methanesulfonamide]	–
–	–	6.00 to 8.00	5.30 to 6.30	CS(=O)(=O)CC1CCN(c2cc(-c3cnc4ccc(C(F)F)nn34)ncn2)C1 (stereo not shown) [II-396, 6-(Difluoromethyl)-3-(6-(3-((methylsulfonyl)methyl)pyrrolidin-1-yl)pyrimidin-4-yl)imidazo[1,2-b]pyridazine]	–
–	–	> 8.00	> 6.30	C[C@@H]1C[C@H](N=S(C)(C)=O)[C@H](C)N(c2cc(-c3cnc4ccc(C(F)F)nn34)ncn2)C1 (single isomer, unassigned) [II-631]	–
–	–	6.00 to 8.00	< 5.30	CC(=O)N1CCC(c2cc(-c3cnc4ccc(C(F)F)nn34)ncn2)C1 (stereo not shown) [II-253, 1-(3-(6-(6-(Difluoromethyl)imidazo[1,2-b]pyridazin-3-yl)pyrimidin-4-yl)pyrrolidin-1-yl)ethan-1-one]	–
–	–	6.00 to 8.00	< 5.30	CC(O)c1ccc2ncc(-c3cc(N4CCO[C@H](CNS(C)(=O)=O)C4)ncn3)n2n1 (stereo partly drawn) [II-338, N-(((2S)-4-(6-(6-(1-Hydroxyethyl)imidazo[1,2-b]pyridazin-3-yl)pyrimidin-4-yl)morpholin-2-yl)methyl)methanesulfonamide trifluoroacetate]	–
–	–	6.00 to 8.00	< 5.30	O=S(=O)(N[C@H]1CCCN(c2cc(-c3cnc4ccc(C(F)F)nn34)ncn2)C1)C1CNC1 [II-435, (S)—N-(1-(6-(6-(Difluoromethyl)imidazo[1,2-b]pyridazin-3-yl)pyrimidin-4-yl)piperidin-3-yl)azetidine-3-sulfonamide]	–
–	–	6.00 to 8.00	< 5.30	CS(=O)(=O)N1CC2CCN(c3cc(-c4cnc5ccc(C(F)F)nn45)ncn3)C2C1 (stereo not shown) [II-282, 6-(Difluoromethyl)-3-(6-(5-(methylsulfonyl)hexahydropyrrolo[3,4-b]pyrrol-1 (2H)-yl)pyrimidin-4-yl)imidazo[1,2-b]pyridazine]	–
–	–	> 8.00	5.30 to 6.30	CC1(O)CCN(c2cc(-c3cnc4ccc(C(F)F)nn34)ncn2)CC1CNS(C)(=O)=O (stereo not shown) [II-239, N-((1-(6-(6-(Difluoromethyl)imidazo[1,2-b]pyridazin-3-yl)pyrimidin-4-yl)-4-hydroxy-4-methylpiperidin-3-yl)methyl)methanesulfonamide]	–
